In brackets after ≈: the same amount, converted by molar mass. Where two headings read alike, the source gives them in different places.

The values below come from PMC9312238, “Novel Organoselenium Redox Modulators with Potential Anticancer, Antimicrobial, and Antioxidant Activities” (Antioxidants, 2022).

The test system of data set [1] is MCF-7 cells. Description: cells. Type of data set: cell-based, human. The conditions noted are these: for IC50: MTT, 24 h incubation, MCF-7 cells, read-out: MCF7 IC50; for MCF7 TI (IC50 WI-38 / IC50 MCF-7): therapeutic index, ratio of WI-38 IC50 to MCF-7 IC50. The method, then: (§1) Cells were obtained from the ATCC Company (VACSERA), Cairo, Egypt. MTT assay were performed according to the literature method. More details are in the Supporting Information.
(§2) Recently, OSe compounds gained much attention as possible drug candidates due to their various pharmacological properties. […] Therefore, the anticancer attributes of the newly prepared OSe compounds were estimated using the MTT assay against MCF-7 and HepG2 and compared with their respective cytotoxicity in WI-38 primary cells. The anthracycline drug doxorubicin was used as the standard. […] Moreover, the therapeutic index (TI) was also calculated (according to Equation (1)), which is considered a measure of the selectivity and safety of the synthesized compounds. (1) TI=IC50 for the normal WI38 cells/IC50 for the cancer cells […]
(§3) 1.1. The biological assays
(§4) 1.1.1. The anticancer activity
(§5) The breast adenocarcinoma (MCF-7), Hepatocellular carcinoma (HEPG-2), and nor-mal fibroblast (WI-38) cells were obtained from ATCC via Holding company for biological products and vaccines (VACSERA), Cairo, Egypt.
(§6) DMSO, and fetal bovine serum was obtained from Sigma Aldrich. Dulbecco’s modified Eagle’s medium was used as the culture medium for the cells, and the cytotoxicity was evaluated using the reported MTT assay. Doxorubicin was used as the positive reference, and the IC50 values were obtained from the corresponding dose-response curve.
(§7) This colorimetric assay is based on converting the yellow tetrazolium bromide (MTT) to a purple formazan derivative by mitochondrial succinate dehydrogenase in viable cells. […]
(§8) added were 100 units/ml penicillin and 100µg/ml streptomycin at 37 C in a 5% Co2 incu-bator. The cell lines were seeded in a 96-well plate at a density of 1.0x10^4 cells/well. at 37 C for 48 h under 5% Co2. After incubation, the cells were treated with different concentra-tions of compounds and incubated for 24 h. After 24 h of drug treatment, 20 µl of MTT solution at 5mg/ml was added and incubated for 4 h. Finally, dimethyl sulfoxide (DMSO) in the volume of 100 µl is added to each well to dissolve the purple formazan formed. The colorimetric assay is measured and recorded at an absorbance of 570 nm using a plate […]
(§9) The percentage of the relative cell viability was calculated as (A570 of treated samples/A570 of the untreated sample) X 100. […]

Data set [2] has as its system WI-38 cells. In words: cells. The following applies: MTT, 24 h incubation, normal WI-38 cells, read-out: WI38 IC50. Type of data set: cell-based, human. The method, then:
as §1, §2, §3, §4, §5, §6, §7, §8, §9

The test system of data set [3] is Escherichia coli. In words: Agar diffusion assay, E. coli. Type of data set: cell-based. On the set-up: E. coli A% (activity index): concentration or dose not given beside the values. The conditions noted are these: for E. coli A% (activity index): zone of test compound / zone of standard (ampicillin) x 100; for zone of inhibition at 20 µM: Escherichia coli, read-out: E. coli IZD (mm). (In general: Agar diffusion results depend on both activity and mobility in agar.)

Data set [4] has as its system Staphylococcus aureus. In words: MIC by microdilution, S. aureus. The format is cell-based. The method, then: (§10) The antimicrobial activities of the OSe compounds were evaluated against C. albicans yeast, as well as E. coli and S. bacteria, employing the agar well diffusion assay. Furthermore, the MICs (in µM) were determined by the microdilution method according to the reported protocol. More details are in the Supporting Information. […]
(§11) 1.1.1. The antimicrobial activity
(§12) The antimicrobial activities of the OSe compounds were evaluated against C. albicans yeast as well as E. coli gram-negative and S. aureus gram-positive bacteria employing the agar well diffusion assay. Briefly, a concentration of 1 mM was prepared for each compound by dissolving in DMSO. Paper discs of standard size […] were steri-lized in an autoclave and soaked in 20 µL of the test compounds, and placed in the Petri dishes, which in turn contain a nutrient media (agar 20 g, peptone 5 g, and beef extract 3 g) seeded with the dedicated strain. Incubation lasted for 24 h at 36
(§13) Furthermore, the MICs (in µM) were determined by the microdilution method according to the reported protocol. […]
(§14) Inhibition%= (Ablank-Asample)/(Ablank)*100. (1)

The subject of data set [5] is Candida albicans. In words: MIC by microdilution, C. albicans. Type of data set: cell-based. The following applies: read-out: MIC (μM) C. albicans. The method, then:
as §10, §11, §12, §13, §14
For orientation: Broth dilution looks for growth in wells or tubes with falling amounts of substance.

A short description of data set [6]: ABTS radical scavenging bioassay. Type of data set: biochemical. The following applies: for radical scavenging activity, ABTS assay: compound 1 mM in phosphate-buffered methanol, 734 nm; for IC50: concentration decreasing absorbance by 50%. From the text:
The antioxidant activity was estimated by ABTS and DPPH bioassays, according to the reported literature method. More details are in the Supplementary Materials.
Recently, OSe compounds were thoroughly used as redox modulators to control many complicated diseases (e.g., cancer and neurodegenerative diseases). The DPPH and ABTS bioassays were extensively used as rapid tools for estimating the antioxidant potency of OSe compounds [50, 51]. Ascorbic acid was used as a standard control, and the antioxidant potency was measured by the ability of the compounds to decolorize the characteristic colors of the ABTS^. and DPPH^. radicals by following the colorimetric decline in absorbance at 734 and 517 nm, respectively (Figure 2).
Figure 2 Evaluation of the antioxidant properties of the OSe compounds employing the ABTS and DPPH assays. All measurements are mean ± SD. In the DPPH assay: absorbance was read after 0.5 h of mixing […] of DPPH with […] of OSe compounds (1 mM, MeOH) at 517 nm. In the ABTS assay: […] of each OSe compound (1 mM, phosphate-buffered methanol) was mixed with the ABTS solution (60 mM), and absorbance was monitored at 734 nm.
The antioxidant activity of the investigated compounds was assessed using 2,2’-az-ino-bis(3-ethylbenzothiazoline-6-sulphonic acid (ABTS) method. The radical cation derived from ABTS was prepared by the reaction of 60 mM ABTS solution with 0.3 M manganese dioxide solution in 0.1M phosphate buffer, pH 7. Then, the mixture was shaken, centrifuged, filtered, and the absorbance (Acontrol) of the resulting green-blue solu-tion (ABTS radical solution) was measured at wavelength 734 nm. Then, […] of 1 mg/ml test compound in phosphate-buffered methanol was added. The absorbance (Atest) was measured. The reduction in color intensity was expressed as % inhibition. The % inhibi-tion for each compound is calculated from the following equation
Inhibition% = (Acontrol-Asample)/(Acontrol)*100
Ascorbic acid (vitamin C) was used as a standard antioxidant (positive control). A blank sample was run without ABTS and using MeOH/phosphate buffer (1:1) instead of the sample. A negative control sample was run with MeOH/phosphate buffer (1:1) instead

[7] abbreviates: inhibition zone diameter, six-mm disks soaked with 20 μM of compound.

For the compound “2-((4-(2-(3-hydroxynaphthalen-1(4H)-ylidene)hydrazinyl)phenyl)selanyl)-N-phenylacetamide [Compound 9]”, in data set [1], the IC50 (usually the concentration that inhibits the measured activity by half) worked out at 3.27 ± 0.2 µM and the “MCF7 TI (IC50 WI-38 / IC50 MCF-7)” value is reported as 12. Moreover, in data set [2], the IC50 was 39.3 ± 2.5 µM. Moreover, the “E. coli IZD (mm)” value in data set [3] (setting [7]) is 20 mm. The “E. coli A% (activity index)” value in data set [3] stood at 87%. Further, the “MIC (μM) S. aureus” value in data set [4] (microdilution) amounted to 1 µM. For the same compound, in data set [5] (microdilution), the MIC (in general, the smallest concentration in the dilution series that meets the test's criterion for growth inhibition) is 2 µM. In data set [6], the “radical scavenging activity, ABTS assay” value turned out to be 88% and the IC50 worked out at 28.87 ± 0.2 µM.
As to `Nc1ccc([Se]CC(=O)Nc2ccccc2)cc1` [Compound 4, 2-((4-aminophenyl)selanyl)-N-phenylacetamide], the melting point (usually the temperature of the solid-liquid transition) is 121 to 122 °C. The IC50 in data set [1] (Homo sapiens, MCF7) amounted to 11.3 ± 0.8 µM. Besides, the “MCF7 TI (IC50 WI-38 / IC50 MCF-7)” value in data set [1] came to 4.6. The half-inhibitory concentration (IC50) in data set [2] (Homo sapiens) worked out at 52.3 ± 3 µM. In data set [3] (setting [7]), the zone of inhibition at 20 µM stood at 14 mm. The “E. coli A% (activity index)” value in data set [3] is recorded as 61%. Also, the “radical scavenging activity, ABTS assay” value in data set [6] turned out to be 78%.
With `CCOc1ccc(NC(=O)C[Se]c2ccc(N)cc2)cc1` [Compound 5, 2-((4-aminophenyl)selanyl)-N-(4-ethoxyphenyl)acetamide], the melting point fell in the range of 136 to 137 °C. Further, in data set [1] (Homo sapiens, MCF7), the IC50 stood at 25.5 ± 2 µM. In data set [1], the “MCF7 TI (IC50 WI-38 / IC50 MCF-7)” value is listed as 4. In addition, the IC50 in data set [2] (Homo sapiens) is above 100 µM. For the same compound, the zone of inhibition at 20 µM in data set [3] (setting [7]) stood at 10 mm. The “E. coli A% (activity index)” value in data set [3] was 44%. For the same compound, the “radical scavenging activity, ABTS assay” value in data set [6] is 53%.
With `Nc1ccc([Se]CC(=O)N[C@@H](Cc2c[nH]c3ccccc23)C(=O)O)cc1` [Compound 6, (2-((4-aminophenyl)selanyl)acetyl)tryptophan], the melting point is 154 to 156 °C. Further, the IC50 in data set [1] (Homo sapiens, MCF7) was determined as 5.69 ± 0.4 µM. The “MCF7 TI (IC50 WI-38 / IC50 MCF-7)” value in data set [1] is 5. Besides, the IC50 in data set [2] (Homo sapiens) came out at 28.4 ± 2.2 µM. Besides, the zone of inhibition at 20 µM in data set [3] (setting [7]) is 17 mm. Moreover, the “E. coli A% (activity index)” value in data set [3] is given as 74%. In addition, in data set [4] (Staphylococcus aureus, read-out: MIC (μM) S. aureus), the MIC was determined as 2 µM (≈ 0.833 µg/mL). In data set [5] (Candida albicans), the MIC was found to be 8 µM (≈ 3.33 µg/mL). Moreover, in data set [6], the “radical scavenging activity, ABTS assay” value stood at 85% and half-maximal inhibition (IC50) was put at 31.92 ± 0.29 µM.
Compound `O=C(O)CCC(=O)Nc1ccc([Se]CC(=O)Nc2ccccc2)cc1` [Compound 11, 4-oxo-4-((4-((2-oxo-2-(phenylamino)ethyl)selanyl)phenyl)amino)butanoic acid] displayed a melting point of 163 to 165 °C. Further, the IC50 in data set [1] (Homo sapiens, MCF7) amounted to 21.2 ± 1.8 µM. The “MCF7 TI (IC50 WI-38 / IC50 MCF-7)” value in data set [1] is given as 3.2. Also, the IC50 in data set [2] (Homo sapiens) stood at 67.3 ± 3.9 µM. The zone of inhibition at 20 µM in data set [3] (setting [7]) was 12 mm. Moreover, in data set [3], the “E. coli A% (activity index)” value worked out at 52%. For the same compound, the “radical scavenging activity, ABTS assay” value in data set [6] is 74%.
In turn, `O=C(C[Se]c1ccc(N2C(=O)CCC2=O)cc1)Nc1ccccc1` [Compound 14, 2-((4-(2,5-dioxopyrrolidin-1-yl)phenyl)selanyl)-N-phenylacetamide] showed a melting point of 159 to 161 °C. Moreover, in data set [1] (Homo sapiens, MCF7), the IC50 worked out at 17.1 ± 1.4 µM. Besides, the “MCF7 TI (IC50 WI-38 / IC50 MCF-7)” value in data set [1] was 3.6. In addition, in data set [2] (Homo sapiens), the concentration for half-maximal inhibition (IC50) was 62 ± 3.6 µM. Also, the zone of inhibition at 20 µM in data set [3] (setting [7]) stood at 13 mm. Besides, the “E. coli A% (activity index)” value in data set [3] was found to be 57%. The “radical scavenging activity, ABTS assay” value in data set [6] came out at 81%.
In turn, `C[Se]c1ccc(NC(=O)C=CC(=O)O)cc1` [Compound 15, 4-((4-(methylselanyl)phenyl)amino)-4-oxobut-2-enoic acid] gave a melting point of 171 °C. Moreover, the IC50 in data set [1] (Homo sapiens, MCF7) is 7.03 ± 0.6 µM. Besides, the “MCF7 TI (IC50 WI-38 / IC50 MCF-7)” value in data set [1] was found to be 2.8. The IC50 in data set [2] (Homo sapiens) amounted to 19.8 ± 1.5 µM. In data set [3] (setting [7]), the zone of inhibition at 20 µM was 15 mm. Moreover, the “E. coli A% (activity index)” value in data set [3] is 65%. Further, the “radical scavenging activity, ABTS assay” value in data set [6] was 84%.
Regarding `C[Se]c1ccc(NC(=O)CCC(=O)O)cc1` [Compound 16, 4-((4-(methylselanyl)phenyl)amino)-4-oxobutanoic acid], the melting point was 169.6 °C. In addition, the IC50 in data set [1] (Homo sapiens, MCF7) amounted to 29.5 ± 2.2 µM. Further, the “MCF7 TI (IC50 WI-38 / IC50 MCF-7)” value in data set [1] stood at 0.7. Moreover, in data set [2] (Homo sapiens), the IC50 is 22.5 ± 1.9 µM. In addition, in data set [3] (setting [7]), the zone of inhibition at 20 µM turned out to be 10 mm. For the same compound, the “radical scavenging activity, ABTS assay” value in data set [6] worked out at 71%.
